# Experimental data: patent publication US11149036B2, “3-(1H-pyrazol-4-yl)pyridine allosteric modulators of the M4 muscarinic acetylcholine receptor” (Merck Sharp & Dohme Corp., priority 2017, dated 2021)
# Biological target: T1, human M4 muscarinic acetylcholine receptor (Homo sapiens, UniProt P08173)
# T1 construct: expressed in transfected cells; host or cells: CHO-K1
# T1 sequence (P08173 1-479): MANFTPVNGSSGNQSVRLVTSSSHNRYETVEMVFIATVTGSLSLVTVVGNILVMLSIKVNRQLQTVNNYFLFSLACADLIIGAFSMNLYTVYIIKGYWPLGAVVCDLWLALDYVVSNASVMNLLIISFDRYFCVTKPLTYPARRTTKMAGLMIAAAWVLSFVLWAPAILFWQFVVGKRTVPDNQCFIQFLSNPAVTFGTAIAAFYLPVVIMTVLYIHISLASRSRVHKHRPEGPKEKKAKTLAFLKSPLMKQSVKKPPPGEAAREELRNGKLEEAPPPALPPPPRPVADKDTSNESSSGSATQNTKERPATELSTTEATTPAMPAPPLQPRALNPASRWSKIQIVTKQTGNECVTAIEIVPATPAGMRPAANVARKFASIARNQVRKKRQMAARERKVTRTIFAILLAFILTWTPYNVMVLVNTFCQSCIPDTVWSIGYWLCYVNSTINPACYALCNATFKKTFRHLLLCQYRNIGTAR
# Assay: human FLIPR-based M4 PAM assay (CHO-K1 cells with human M4 receptor and Gaqi5, calcium dye fluorescence)
# Assay type: cell-based
# Settings: inflection point (IP) of dose response curve, acetylcholine added at 20% of maximum response, read-out: M4 FLIPPR Hu IP
# Procedure, shortened: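 CHO-K1 cells stably expressing human M4 with chimeric Gaqi5, calcium-dye loaded ~1 h at 37° C; compound added at increasing concentrations 4 min before acetylcholine at an EC20 concentration (sometimes a further EC70 addition).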
row,EC50 [nM],Compound
1,41,"CC1(Cn2cc(-c3ccc(C#N)nc3-c3cnc4c(c3)C(=O)OC4)cn2)CCCC1 [Example 73, 5-(1-((1-methylcyclopentyl)methyl)-1H-pyrazol-4-yl)-6-(5-oxo-5,7-dihydrofuro [3,4-b]pyridin-3-yl) picolinonitrile]"
2,58,"CC1(Cn2cc(-c3ccc(C#N)nc3-c3ccn4c(F)cnc4c3)cn2)CCCC1 [Example 74, 6-(3-fluoroimidazo[1,2-a]pyridin-7-yl)-5-(1-((1-methylcyclopentyl)methyl)-1H-pyrazol-4-yl)picolinonitrile]"
3,31,"CC1(Cn2cc(-c3ccc(C#N)nc3-c3ccn4ncnc4c3)cn2)CCCC1 [Example 75, 6-([1,2,4]triazolo[1,5-a]pyridin-7-yl)-5-(1-((1-methylcyclopentyl)methyl)-1H-pyrazol-4-yl)picolinonitrile]"
4,23,"CC1(Cn2cc(-c3ccc(C#N)nc3-c3ccn4cc(C(F)F)nc4c3)cn2)CCCC1 [Example 76, 6-(2-(difluoromethyl)imidazo [1,2-a]pyridin-7-yl)-5-(1-((1-methylcyclopentyl)methyl)-1H-pyrazol-4-yl)picolinonitrile]"
5,66,"CC1(Cn2cc(-c3ccc(C#N)nc3-c3ccn4cncc4c3)cn2)CCCC1 [Example 77, 6-(imidazo[1,5-a]pyridin-7-yl)-5-(1-((1-methylcyclopentyl)methyl)-1H-pyrazol-4-yl)picolinonitrile]"
6,29,"CC1(Cn2cc(-c3ccc(C#N)nc3-c3ccn4nc(CF)nc4c3)cn2)CCCC1 [Example 78, 6-(2-(fluoromethyl)-[1,2,4]triazolo[1,5-a]pyridin-7-yl)-5-(1-((1-methylcyclopentyl)methyl)-1H-pyrazol-4-yl)picolinonitrile]"
7,80,"CC1(Cn2cc(-c3ccc(C#N)nc3-c3ccn4nccc4c3)cn2)CCCC1 [Example 79, 5-(1-((1-methylcyclopentyl)methyl)-1H-pyrazol-4-yl)-6-(pyrazolo[1,5-a]pyridin-5-yl) picolinonitrile]"
8,65,"Cc1nc2cc(-c3nc(C#N)ccc3-c3cnn(CC4(C)CCCC4)c3)cnc2o1 [Example 80, 5-(1-((1-methylcyclopentyl)methyl)-1H-pyrazol-4-yl)-6-(2-methyloxazolo[5,4-b]pyridin-6-yl)picolinonitrile]"
9,82,"CC1(Cn2ncc(-c3ccc(C#N)nc3-c3ccn4ccnc4c3)c2Cl)CCCC1 [Example 81, 5-(5-chloro-1-((1-methylcyclopentyl)methyl)-1H-pyrazol-4-yl)-6-(imidazo[1,2-a]pyridin-7-yl)picolinonitrile]"
10,20,"CC1(Cn2cc(-c3ccc(C#N)nc3-c3ccn4cc(CO)nc4c3)cn2)CCCC1 [Example 82, 6-(2-(hydroxymethyl)imidazo [1,2-a]pyridin-7-yl)-5-(1-((1-methylcyclopentyl)methyl)-1H-pyrazol-4-yl)picolinonitrile]"
11,26,"Cc1cn2ccc(-c3nc(C#N)ccc3-c3cnn(CC4C[C@@H](F)[C@H](F)C4)c3)cc2n1 [Example 83, 5-(1-(((3R,4R)-3,4-difluorocyclopentyl)methyl)-1H-pyrazol-4-yl)-6-(2-methylimidazo[1,2-a]pyridin-7-yl)picolinonitrile]"
12,33,"N#Cc1ccc(-c2cnn(CC3C[C@@H](F)[C@H](F)C3)c2)c(-c2ccc3cccnc3c2)n1 [Example 84, 5-(1-(((3R,4R)-3,4-difluorocyclopentyl)methyl)-1H-pyrazol-4-yl)-6-(quinolin-7-yl)picolinonitrile]"
13,37,"Cn1cnc2cc(-c3nc(C#N)c(F)cc3-c3cnn(CC4(C)CCCC4)c3)cnc21 [Example 85, 3-fluoro-6-(3-methyl-3H-imidazo[4,5-b]pyridin-6-yl)-5-(1-((1-methylcyclopentyl)methyl)-1H-pyrazol-4-yl)picolinonitrile]"
14,18,"Cn1cnc2cc(-c3nc(C#N)c(F)cc3-c3cnn(CC4(C)CCCC4)c3)ccc21 [Example 86, 3-fluoro-6-(1-methyl-1H-benzo[d]imidazol-5-yl)-5-(1-((1-methylcyclopentyl)methyl)-1H-pyrazol-4-yl)picolinonitrile]"
15,11,"CC1(Cn2cc(-c3cc(F)c(C#N)nc3-c3ccn4ccnc4c3)cn2)CCCC1 [Example 87, 3-fluoro-6-(imidazo[1,2-a]pyridin-7-yl)-5-(1-((1-methylcyclopentyl)methyl)-1H-pyrazol-4-yl)picolinonitrile]"
16,24,"Cc1cn2ccc(-c3nc(C#N)c(F)cc3-c3cnn(CC4(C)CCCC4)c3)cc2n1 [Example 88, 3-fluoro-5-(1-((1-methylcyclopentyl)methyl)-1H-pyrazol-4-yl)-6-(2-methylimidazo [1,2-a]pyridin-7-yl)picolinonitrile]"

row,EC50 [nM],Compound
1,67,"Cn1cc2ccc(-c3nc(C#N)c(F)cc3-c3cnn(CC4(F)CCCC4)c3)cc2n1 [Example 89, 3-fluoro-5-(1-((1-fluorocyclopentyl)methyl)-1H-pyrazol-4-yl)-6-(2-methyl-2H-indazol-6-yl) picolinonitrile]"
2,42,"Cc1nnc2cc(-c3nc(C#N)c(F)cc3-c3cnn(CC4(F)CCCC4)c3)ccn12 [Example 90, 3-fluoro-5-(1-((1-fluorocyclopentyl)methyl)-1H-pyrazol-4-yl)-6-(3-methyl-[1,2,4]triazolo [4,3-a]pyridin-7-yl)picolinonitrile]"
3,33,"N#Cc1nc(-c2ccn3cc(C(F)(F)F)nc3c2)c(-c2cnn(CC3(F)CCCC3)c2)cc1F [Example 91, 3-fluoro-5-(1-((1-fluorocyclopentyl)methyl)-1H-pyrazol-4-yl)-6-(2-(trifluoromethyl)imidazo [1,2-a]pyridin-7-yl)picolinonitrile]"
4,4,"COc1cc2ccc(-c3nc(F)ccc3-c3cnn(CC4(C)CCCC4)c3)cc2nn1 [Example 92, 7-(6-fluoro-3-(1-((1-methylcyclopentyl)methyl)-1H-pyrazol-4-yl)pyridin-2-yl)-3-methoxycinnoline]"
5,34,"Cc1cc(-c2cnn(CC3(C)CCCC3)c2)c(-c2ccn3ccnc3c2)nc1F [Example 93, 7-(6-fluoro-5-methyl-3-(1-((1-methylcyclopentyl)methyl)-1H-pyrazol-4-yl)pyridin-2-yl)imidazo[1,2-a]pyridine]"
6,35,"Cc1cc(-c2cnn(CC3(F)CCCC3)c2)c(-c2ccn3ccnc3c2)nc1F [Example 94, 7-(6-fluoro-3-(1-((1-fluorocyclopentyl)methyl)-1H-pyrazol-4-yl)-5-methylpyridin-2-yl) imidazo[1,2-a]pyridine]"
7,80,"Fc1cnc(-c2ccc3cccnc3c2)c(-c2cnn(CC3(F)CCCC3)c2)c1 [Example 95, 7-(5-fluoro-3-(1-((1-fluorocyclopentyl)methyl)-1H-pyrazol-4-yl)pyridin-2-yl) quinoline]"
8,35,"Cc1cn2ccc(-c3ncc(F)cc3-c3cnn(CC4(F)CCCC4)c3)cc2n1 [Example 96, 7-(5-fluoro-3-(1-((1-fluorocyclopentyl)methyl)-1H-pyrazol-4-yl)pyridin-2-yl)-2-methylimidazo[1,2-a] pyridine]"
9,68,"Cc1nc2cc(-c3ncc(F)cc3-c3cnn(CC4(F)CCCC4)c3)ccn2c1C [Example 97, 7-(5-fluoro-3-(1-((1-fluorocyclopentyl)methyl)-1H-pyrazol-4-yl)pyridin-2-yl)-2,3-dimethylimidazo[1,2-a] pyridine]"
10,82,"Fc1cnc(-c2ccn3cc(C(F)(F)F)nc3c2)c(-c2cnn(CC3(F)CCCC3)c2)c1 [Example 98, 7-(5-fluoro-3-(1-((1-fluorocyclopentyl)methyl)-1H-pyrazol-4-yl)pyridin-2-yl)-2-(trifluoromethyl)imidazo [1,2-a]pyridine]"
11,83,"Cc1nc2cc(-c3ncc(F)cc3-c3cnn(CC4(F)CCCC4)c3)ccc2n1C [Example 99, 5-(5-fluoro-3-(1-((1-fluorocyclopentyl)methyl)-1H-pyrazol-4-yl)pyridin-2-yl)-1,2-dimethyl-1H-benzo[d]imidazole]"
12,69,"O=C1c2cc(-c3ncc(F)cc3-c3cnn(CC4(F)CCCC4)c3)ccc2CN1C1CC1 [Example 101, 2-cyclopropyl-6-(5-fluoro-3-(1-((1-fluorocyclopentyl)methyl)-1H-pyrazol-4-yl)pyridin-2-yl) isoindolin-1-one]"
13,232,Cc1nc2cc(-c3ncc(F)cc3-c3cnn(CC4C[C@@H](F)[C@H](F)C4)c3)ccc2n1C [Example 102]
14,45,"CC1(Cn2cc(-c3c(C#N)ccnc3-c3ccc4cccnc4c3)cn2)CCCC1 [Example 103, 3-(1-((1-methylcyclopentyl)methyl)-1H-pyrazol-4-yl)-2-(quinolin-7-yl)isonicotinonitrile]"
15,20,"FC(F)(F)c1ccc(-c2cnn(CC3CCCC3)c2)c(-c2ccc3cccnc3c2)n1 [Example 104, 7-(3-(1-(cyclopentylmethyl)-1H-pyrazol-4-yl)-6-(trifluoromethyl)pyridin-2-yl)quinoline]"
16,17,"COc1cc2ccc(-c3nc(C)c(C#N)cc3-c3cnn(CC4(C)CCCC4)c3)cc2nn1 [Example 105, 6-(3-methoxycinnolin-7-yl)-2-methyl-5-(1-((1-methylcyclopentyl)methyl)-1H-pyrazol-4-yl)nicotinonitrile]"
